# In US20250011311A1, “AMIDO HETEROAROMATIC COMPOUNDS” (AstraZeneca AB, priority 2022, published 2025):
# Tests used:
# CYP2C9 = CYP2C9 (Homo sapiens (Human), UniProt P11712); assay: Assay B: Cytochrome P450 Inhibition 2C9
# [1] = target: over expressed HSD17β13 in HEK293S cells (Homo sapiens (Human), UniProt Q7Z5P4); assay: In Vitro 17bHSD13 Cell Assay; assay type: cell-based; details: HEK293S cells over expressing HSD17β13; estradiol to estrone conversion, 18 h, LC-MS/MS; read-out: 17bHSD1713 Cell assay IC50
# over expressed HSD17β13 in HEK293S cells, sequence (Q7Z5P4 20-300): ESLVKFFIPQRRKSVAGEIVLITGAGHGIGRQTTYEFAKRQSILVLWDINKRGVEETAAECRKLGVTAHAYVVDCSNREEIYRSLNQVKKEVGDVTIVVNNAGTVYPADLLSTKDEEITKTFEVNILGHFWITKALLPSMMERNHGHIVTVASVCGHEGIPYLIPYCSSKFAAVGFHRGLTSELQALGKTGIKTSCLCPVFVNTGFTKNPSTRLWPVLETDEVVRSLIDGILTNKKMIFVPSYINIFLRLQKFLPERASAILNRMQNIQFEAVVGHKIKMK
# How it was run: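 HEK293S cells overexpressing HSD17β13 convert estradiol to estrone; product read by LC-MS/MS (APCI, positive MRM) as AUC ratio estrone/(estrone+estradiol). Effect normalised between DMSO and maximal inhibition by a known inhibitor control; IC50 from curve fit.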
# [2] = target: recombinant 17bHSD13 (N2-K300) (Homo sapiens (Human), UniProt Q7Z5P4); assay: In Vitro 17bHSD13 Enzyme Assay; assay type: biochemical; details: 80 nM 17bHSD13, 0.5 mM NAD, 20 μM Estradiol, 2.5 h; estradiol to estrone by LC-MS/MS
# recombinant 17bHSD13 (N2-K300), sequence (Q7Z5P4 2-300): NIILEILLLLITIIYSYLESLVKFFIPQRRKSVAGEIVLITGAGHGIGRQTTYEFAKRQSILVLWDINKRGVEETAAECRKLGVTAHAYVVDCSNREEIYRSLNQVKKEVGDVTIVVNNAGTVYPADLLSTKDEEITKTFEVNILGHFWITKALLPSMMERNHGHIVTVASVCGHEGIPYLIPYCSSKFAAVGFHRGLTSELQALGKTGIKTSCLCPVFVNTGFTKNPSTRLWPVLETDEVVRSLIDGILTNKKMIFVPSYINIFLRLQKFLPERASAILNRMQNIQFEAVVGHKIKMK
# How it was run: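 Human 17bHSD13 (N2-K300, 80 nM) with 0.5 mM NAD, 20 μM estradiol and varied compound in 50 mM Tris-Cl pH 7.4, 5 mM EDTA, 0.01% DDM. Estrone/(estrone+estradiol) ratio read by LC-MS/MS (APCI, positive MRM). Inhibition normalised to DMSO and a known-inhibitor control; IC50 from curve fit.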
# human hepatocytes = assay: Assay A: Metabolic Stability in Human Hepatocytes; assay type: in vitro ADME; details: cryopreserved human hepatocytes, 10^6 viable cells/mL, 1 μM compound, 37° C.
# Procedure: Assay A: Metabolic Stability in Human Hepatocytes
# Hepatocyte metabolic stability was determined in accordance with the method described by Jacobson et al., An optimized automated assay for determination of metabolic stability using hepatocytes: assay validation, variance component analysis, and in vivo relevance. Assay Drug Dev Technol 2007, 5 (3), 403-415. DOI: 10.1089/adt.2007.059, which is incorporated herein by reference. Cryopreserved hepatocytes at a concentration of 10^6 viable cells/mL were used. After thawing, hepatocytes were incubated for 10 min to warm to 37° C. and test compounds, dissolved in acetonitrile, were added to give a final concentration of 1 μM. At 0.5, 5, 15, 30, 45, 60, 80, 100 and 120 min, the incubation system was mixed and 20 μL aliquots were transferred at each time point to wells in a separate plate filled with 80 μL MeCN to stop the reaction. The quenching plate was then vortexed followed by centrifugation, and supernatants were analyzed by LC-MS/MS. Peak areas were determined from extracted ion chromatograms, and the in vitro intrinsic clearance (in vitro CLint, in μL/min/10^6 cells) of parent compound was calculated from the slope in the regression analysis of the natural logarithm of parent concentration vs time curve.
# [3] = target: over expressed HSD17β9 in HEK293S cells (Homo sapiens (Human), UniProt Q92781); assay: In Vitro 17bHSD9 Cell Assay; assay type: cell-based; details: HEK293S cells over expressing HSD17β9; retinol to retinal conversion, 18 h, LC-MS/MS; read-out: 17bHSD9 Cell assay IC50
# over expressed HSD17β9 in HEK293S cells, sequence (Q92781 whole entry): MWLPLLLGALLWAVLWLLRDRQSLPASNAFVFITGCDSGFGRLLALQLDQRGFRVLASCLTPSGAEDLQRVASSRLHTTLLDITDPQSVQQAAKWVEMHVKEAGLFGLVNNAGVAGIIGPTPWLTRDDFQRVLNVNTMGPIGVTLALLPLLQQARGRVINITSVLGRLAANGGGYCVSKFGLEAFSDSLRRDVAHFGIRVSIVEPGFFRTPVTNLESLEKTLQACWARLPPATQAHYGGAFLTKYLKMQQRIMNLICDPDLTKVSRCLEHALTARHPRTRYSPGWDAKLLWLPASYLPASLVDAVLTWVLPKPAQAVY
# How it was run: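 HEK293S cells overexpressing HSD17β9 were plated at 10K cells/well in DMEM + 10% FBS and cultured 18 h. Retinol-to-retinal conversion in media was quantified by LC-MS/MS (MRM) as retinal/(retinal + retinol). IC50 was fitted after normalisation to DMSO and full inhibition by a reference inhibitor.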
# [4] = target: recombinant 17bHSD4 (M1-N311) (Homo sapiens (Human), UniProt P51659); assay: In Vitro 17bHSD4 Enzyme Assay; assay type: biochemical; details: 40 nM 17bHSD4, 0.125 mM NAD, 15 μM Estradiol, 1.5 h; NADH fluorescence; read-out: 17HSD17b4 Enzyme assay IC50
# recombinant 17bHSD4 (M1-N311), sequence (P51659 1-311): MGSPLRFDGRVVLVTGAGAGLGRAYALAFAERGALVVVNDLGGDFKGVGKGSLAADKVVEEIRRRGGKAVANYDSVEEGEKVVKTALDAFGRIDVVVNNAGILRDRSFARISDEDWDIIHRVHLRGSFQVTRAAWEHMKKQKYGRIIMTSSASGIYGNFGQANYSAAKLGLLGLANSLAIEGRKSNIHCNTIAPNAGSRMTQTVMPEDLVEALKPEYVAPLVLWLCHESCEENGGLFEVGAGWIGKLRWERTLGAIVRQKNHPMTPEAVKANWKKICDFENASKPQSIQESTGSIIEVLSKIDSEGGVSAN
# Procedure: In Vitro 17bHSD4 Enzyme Assay
# 10 concentration of compounds (0.2 μl) in DMSO was added to GREINER FLUOTRAC 200 384 well plate (781076) using ECHO dispensing (BECKMAN COULTER). 80 nl of 10 mM Estradiol (SIGMA, E8875) was added using Echo dispensing. The enzyme reaction was initiated by addition, using MULTIDROP COMBI dispensing (THERMO FISHER), of 40 μl of a mix containing recombinant 17bHSD4 (M1-N311) and NAD. Final assay conditions were 40 nM of 17bHSD4, 0.125 mM of NAD, 15 μM Estradiol and various concentrations of compound in buffer (5 mM EDTA (TEKNOVA E0306), 0.01% DDM (AFFYMETRIX D310) in 50 mM Tris-Cl, pH 7.4). After each addition plates were centrifuged for 1 min at 150×g (EPPENDORF, 5810R, A-4-81). NADH formation was measured by fluorescence intensity (FI) (Ex360/Em460) at time zero (to) and at 1.5 h (t1) in a PHERASTAR FSX (BMG LABTECH). FI for each sample was calculated as FI at t1 minus FI at t0.
# […] […] was used for curve fitting and calculation of IC50 values.
# Compound effect was calculated with the formula below;
# where X represents the effect in the presence of test compound, min is DMSO and max is the maximum inhibition of enzyme using a known inhibitor as control.
# CYP2C9, sequence (P11712 whole entry): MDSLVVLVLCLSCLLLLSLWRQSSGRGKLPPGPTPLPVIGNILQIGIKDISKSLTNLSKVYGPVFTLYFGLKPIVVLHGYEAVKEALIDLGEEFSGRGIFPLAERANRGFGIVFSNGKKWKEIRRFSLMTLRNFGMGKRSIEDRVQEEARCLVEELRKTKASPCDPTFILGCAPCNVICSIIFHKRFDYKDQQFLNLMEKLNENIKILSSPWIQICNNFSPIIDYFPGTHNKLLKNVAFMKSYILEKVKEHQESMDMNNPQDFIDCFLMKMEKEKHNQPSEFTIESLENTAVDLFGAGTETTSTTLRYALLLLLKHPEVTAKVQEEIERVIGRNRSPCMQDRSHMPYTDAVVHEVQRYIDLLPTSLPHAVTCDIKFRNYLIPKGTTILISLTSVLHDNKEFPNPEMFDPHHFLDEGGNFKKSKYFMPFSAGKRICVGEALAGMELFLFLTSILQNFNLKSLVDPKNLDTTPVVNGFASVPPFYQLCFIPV
IC50 (CYP2C9) [nM],IC50 [1] [nM],IC50 [2] [nM],IC50 [3] [nM],IC50 [4] [nM],SMILES,Assay A: Human Heps Met Clint GMean CLint (μl/min/1E6) (human hepatocytes)
300,170,75,–,–,"O=C(c1noc(-c2cc(F)c(F)c(O)c2F)n1)N1CC2CC2(c2ccccc2)C1 (centres unmarked) [Example 77, (1-Phenyl-3-azabicyclo[3.1.0]hexan-3-yl)(5-(2,4,5-trifluoro-3-hydroxyphenyl)-1,2,4-oxadiazol-3-yl)methanone]",13.4
18400,2220,242,–,–,"O=C(c1noc(-c2cc(F)c(F)c(O)c2F)n1)N1CCC(Oc2cccnc2)CC1 [Example 70, (4-(Pyridin-3-yloxy)piperidin-1-yl)(5-(2,4,5-trifluoro-3-hydroxyphenyl)-1,2,4-oxadiazol-3-yl)methanone]",12.4
3000,2610,93,> 50000,–,"CN(C(=O)c1cc(-c2ccc(F)c(O)c2)no1)c1ccnn1C1CCCCC1 [Example 5, N-(1-Cyclohexyl-1H-pyrazol-5-yl)-3-(4-fluoro-3-hydroxyphenyl)-N-methylisoxazole-5-carboxamide]",–
5900,1220,516,> 50000,–,"N#Cc1ccc2c(c1)CN(C(=O)c1noc(-c3cc(F)c(F)c(O)c3F)n1)C2 [Example 106, 2-(5-(2,4,5-Trifluoro-3-hydroxyphenyl)-1,2,4-oxadiazole-3-carbonyl)isoindoline-5-carbonitrile]",16.1
13100,3470,608,> 50000,–,"N#Cc1ccc(C2CN(C(=O)c3noc(-c4cc(F)c(F)c(O)c4F)n3)C2)cc1 [Example 59, 4-(1-(5-(2,4,5-Trifluoro-3-hydroxyphenyl)-1,2,4-oxadiazole-3-carbonyl)azetidin-3-yl)benzonitrile]",10.2
27000,–,42,24100,–,"C[C@@H]1CN(C(=O)c2noc(-c3c(F)c(O)c(F)c(F)c3Br)n2)C[C@H](C)O1 [Example 124, (5-(2-Bromo-3,4,6-trifluoro-5-hydroxyphenyl)-1,2,4-oxadiazol-3-yl)((2R,6S)-2,6-dimethylmorpholino)methanone]",11.1
8400,5050,83,–,> 50000,"CN(C(=O)c1cc(-c2ccc(F)c(O)c2)on1)c1ccnn1C1CCCCC1 [Example 7, N-(1-Cyclohexyl-1H-pyrazol-5-yl)-5-(4-fluoro-3-hydroxyphenyl)-N-methylisoxazole-3-carboxamide]",–
2000,1390,106,–,–,"O=C(c1noc(-c2cc(F)c(F)c(O)c2F)n1)N1CCC(Oc2ccc(F)cc2)C1 (centres unmarked) [Example 79, (3-(4-Fluorophenoxy)pyrrolidin-1-yl)(5-(2,4,5-trifluoro-3-hydroxyphenyl)-1,2,4-oxadiazol-3-yl)methanone]",10.1
21200,> 50000,4340,–,–,"O=C(Nc1ccnn1C1CCCCC1)c1cnc(-c2ccc(F)c(O)c2)o1 [Example 12, N-(1-Cyclohexyl-1H-pyrazol-5-yl)-2-(4-fluoro-3-hydroxyphenyl)oxazole-5-carboxamide]",–
4400,2970,278,–,–,"N#Cc1c(C(=O)N2CCC(O)(C(F)(F)F)CC2)noc1-c1cc(F)c(F)c(O)c1F [Example 26, 3-(4-Hydroxy-4-(trifluoromethyl)piperidine-1-carbonyl)-5-(2,4,5-trifluoro-3-hydroxyphenyl)isoxazole-4-carbonitrile]",9.2
3100,4090,382,–,–,"N#Cc1c(C(=O)N2CC(F)(C3CC3)C2)noc1-c1cc(F)c(F)c(O)c1F [Example 27, 3-(3-Cyclopropyl-3-fluoroazetidine-1-carbonyl)-5-(2,4,5-trifluoro-3-hydroxyphenyl)isoxazole-4-carbonitrile]",14.0
1300,170,47,17300,18000,"O=C(c1noc(-c2cc(F)c(F)c(O)c2F)n1)N1CCC(c2ccccc2)C1 (centres unmarked) [Example 96, (3-Phenylpyrrolidin-1-yl)(5-(2,4,5-trifluoro-3-hydroxyphenyl)-1,2,4-oxadiazol-3-yl)methanone]",–
800,530,26,24900,6500,"O=C(c1noc(-c2cc(F)c(F)c(O)c2F)n1)N1CC[C@@H](c2ccc(Cl)cc2)C1 [Example 103, (S)-(3-(4-Chlorophenyl)pyrrolidin-1-yl)(5-(2,4,5-trifluoro-3-hydroxyphenyl)-1,2,4-oxadiazol-3-yl)methanone]",–
3000,800,127,–,–,"COc1ccc(C(C)N(C)C(=O)c2noc(-c3cc(F)c(F)c(O)c3F)n2)cc1 (centres unmarked) [Example 78, N-(1-(4-Methoxyphenyl)ethyl)-N-methyl-5-(2,4,5-trifluoro-3-hydroxyphenyl)-1,2,4-oxadiazole-3-carboxamide]",28.2
–,480,281,1200,34600,"O=C(c1noc(-c2cc(F)c(F)c(O)c2F)n1)N1CCOC2(CCC2)C1 [Example 52, (5-Oxa-8-azaspiro[3.5]nonan-8-yl)(5-(2,4,5-trifluoro-3-hydroxyphenyl)-1,2,4-oxadiazol-3-yl)methanone]",–
–,60,117,> 50000,> 50000,"C[C@@H]1CN(C(=O)c2noc(-c3cc(O)c(F)c(F)c3)n2)C[C@H](C)O1 [Example 116, (5-(3,4-Difluoro-5-hydroxyphenyl)-1,2,4-oxadiazol-3-yl)((2R,6S)-2,6-dimethylmorpholino)methanone]",–
200,3100,525,–,–,"N#Cc1c(C(=O)N2CCN(c3ccc4nnc(C(F)(F)F)n4n3)CC2)noc1-c1cc(F)c(F)c(O)c1F [Example 17, 5-(2,4,5-Trifluoro-3-hydroxyphenyl)-3-(4-(3-(trifluoromethyl)-[1,2,4]triazolo[4,3-b]pyridazin-6-yl)piperazine-1-carbonyl)isoxazole-4-carbonitrile]",6.5
